For one data set, the system named is AhR. Particulars: ref Craft et al. 2002; Honkakoski et al. 2003; Tabb et al. 2004; Kopec et al. 2010b; cited from earlier work.
The next data set relates to C57BL/6 mice. In words: Organ and body weights. The note with it: 24 h dose-response study. The class given is in vivo, mouse.
Data set [1] has as its system liver of C57BL/6 mice. In words: Hepatic triglyceride measurement. The data set is classed as in vivo, mouse.
Data set [2] has as its system liver of C57BL/6 mice. In words: Liver histopathology. The class given is in vivo, mouse.
The conditions of data set [3]: liver, after seven days; ref Kopec et al. 2010b; cited from earlier work.
A further data set relates to hepatic gene expression. Particulars: liver, 300 mg/kg PCB153; ref Kopec et al. 2010b; cited from earlier work.
For data set [4] the following is noted: ref Diliberto et al. 1999; cited from earlier work.
The test system of another data set is liver. The note with it: when co-treated with TCDD; ref Mitchell et al. 2010; cited from earlier work.

Each structure is given as a SMILES string.

On to `Clc1cc(Cl)c(-c2cc(Cl)c(Cl)cc2Cl)cc1Cl` [PCB153, 2,2′,4,4′,5,5′-hexachlorobiphenyl], for which, in the data set on AhR, the “AhR binding or activation” value is given as “does not bind or activate”. Further, in the data set with C57BL/6 mice, the “relative liver weight (RLW)” value was “increased RLW only at 100 and 300 mg/kg”. The hepatic triglycerides result in the data set on liver of C57BL/6 mice [1] is given as “no effect”. In the data set on liver of C57BL/6 mice [2] (time course study), the hepatic inflammation entry is given as “did not elicit inflammation”, the hepatocellular hypertrophy entry was “mild to moderate centrilobular hypertrophy” and the hepatocellular vacuolization result is on record as “vacuolization comparable to levels observed in vehicles”. In addition, the “hepatic level at 168 h” value in data set [3] is reported as “dramatically decreased”. In the data set with hepatic gene expression, the “down-regulation of Elovl5” value is recorded as ~ 2 fold.

Regarding `Clc1cc2c(cc1Cl)Oc1cc(Cl)c(Cl)cc1O2` [TCDD, 2,3,7,8-tetrachlorodibenzo-p-dioxin], the “hepatic TCDD accumulation, fold lower in Cyp1a2 null mice compared to wild types” value in data set [4] is 10 fold. In the data set with C57BL/6 mice, the “relative liver weight (RLW)” value is on record as “comparable increases in RLW in all but the lowest dose groups”. The hepatic triglycerides entry in the data set with liver of C57BL/6 mice [1] was “significant increases”. Moreover, the “hepatic inflammation / cell infiltration” value in the data set with liver of C57BL/6 mice [2] (24 h dose-response, TCDD 15, 30, 45 μg/kg, MIX three highest combinations) is reported as “minimal multifocal inflammation”. In addition, in the data set with liver of C57BL/6 mice [2] (time course study), the hepatic inflammation entry was “moderate multifocal inflammation” and the hepatocellular vacuolization entry is listed as “marked hepatocellular vacuolization”. Also, the “hepatic level at 168 h” value in data set [3] was “more modest reductions”.

On to `Clc1cnc(Oc2ccc(Oc3ncc(Cl)cc3Cl)cc2)c(Cl)c1` [TCPOBOP], for which the “increase in hepatic proliferation” value in the data set on liver is reported as 30–50%.

The values above are taken from paper PMC4126514 (Toxicology and applied pharmacology, 2011).
